{
  "source": "PubChem BioAssay AID330",
  "about": "(DTP/NCI, 2004)",
  "tested_on": "P388 leukemia ip, CD2F1 mice, survival T/C",
  "experiment": "NCI In Vivo Anticancer Drug Screen. Data for tumor model P388 Leukemia (intraperitoneal) in CD2F1 (CDF1) mice",
  "details": "endpoint: median survival time, higher = longer survival",
  "summary_of_the_method": "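Mice carrying the transplanted tumor received test compound or vehicle. Survival was recorded in each group, and the value is the treated-group measurement divided by that of the vehicle-treated control group.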",
  "key": {"[1]": {"details": "dose: 50.0 mg/kg/injection, schedule: Q01DX005 (ip), vehicle: saline"}, "[2]": {"details": "dose: 100.0 mg/kg/injection, schedule: Q01DX005 (ip), vehicle: saline"}, "[3]": {"details": "dose: 200.0 mg/kg/injection, schedule: Q01DX005 (ip), vehicle: saline"}, "[4]": {"details": "dose: 50.0 mg/kg/injection, schedule: Q01DX005 (ip), vehicle: saline with Tween-80"}, "[5]": {"details": "dose: 50.0 mg/kg/injection, schedule: Q01DX005 (ip), vehicle: Klucel (hydroxypropylcellulose) (HPC)"}, "[6]": {"details": "dose: 100.0 mg/kg/injection, schedule: Q01DX005 (ip), vehicle: Klucel (hydroxypropylcellulose) (HPC)"}, "[7]": {"details": "dose: 200.0 mg/kg/injection, schedule: Q01DX005 (ip), vehicle: Klucel (hydroxypropylcellulose) (HPC)"}, "[8]": {"details": "dose: 100.0 mg/kg/injection, schedule: Q01DX005 (ip), vehicle: saline with Tween-80"}, "[9]": {"details": "dose: 60.0 mg/kg/injection, schedule: Q01DX005 (ip), vehicle: saline with Tween-80"}, "[10]": {"details": "dose: 120.0 mg/kg/injection, schedule: Q01DX005 (ip), vehicle: saline with Tween-80"}, "[11]": {"details": "dose: 240.0 mg/kg/injection, schedule: Q01DX005 (ip), vehicle: saline with Tween-80"}},
  "note": "Values joined by “and” are separate entries in the source; they are usually repeats but may differ in a detail not shown here. Equal entries are not always repeated. Inconclusive results and toxic doses are left out.",
  "data": [
    {"smiles": "C=C1C[C@@H](O)[C@H](O)[C@@]2(C)C[C@@H]3OC(=O)C(=C)[C@@H]3C[C@H]12", "values": [
      {"measurement": "T/C", "setting": "dose: 3.12 mg/kg/injection, schedule: Q01DX009 (ip), vehicle: saline", "value": "103 % of control"},
      {"measurement": "T/C", "setting": "dose: 6.25 mg/kg/injection, schedule: Q01DX009 (ip), vehicle: saline", "value": "104 % of control and 119 % of control"},
      {"measurement": "T/C", "setting": "dose: 12.5 mg/kg/injection, schedule: Q01DX009 (ip), vehicle: saline", "value": "104 % of control and 113 % of control"},
      {"measurement": "T/C", "setting": "dose: 25.0 mg/kg/injection, schedule: Q01DX009 (ip), vehicle: saline", "value": "122 % of control"}
    ]},
    {"smiles": "OCCOCCSCCOCCO", "values": [
      {"measurement": "T/C", "setting": "[1]", "value": "100 % of control"},
      {"measurement": "T/C", "setting": "[2]", "value": "100 % of control"},
      {"measurement": "T/C", "setting": "[3]", "value": "102 % of control"}
    ]},
    {"smiles": "O=P1(c2ccccc2)C=C(c2ccccc2)NC(c2ccccc2)=C1", "values": [
      {"measurement": "T/C", "setting": "[4]", "value": "93 % of control"},
      {"measurement": "T/C", "setting": "dose: 200.0 mg/kg/injection, schedule: Q01DX005 (ip), vehicle: saline with Tween-80", "value": "90 % of control"}
    ]},
    {"smiles": "C/C=C/C(=O)Oc1ccc[nH]c1=O", "values": [
      {"measurement": "T/C", "setting": "dose: 25.0 mg/kg/injection, schedule: Q01DX005 (ip), vehicle: Klucel (hydroxypropylcellulose) (HPC)", "value": "105 % of control and 91 % of control"},
      {"measurement": "T/C", "setting": "[5]", "value": "114 % of control and 116 % of control"},
      {"measurement": "T/C", "setting": "[6]", "value": "108 % of control and 113 % of control"},
      {"measurement": "T/C", "setting": "[7]", "value": "92 % of control"}
    ]},
    {"smiles": "CC(C)CC(=O)C1C(c2ccccc2)CC(=O)C(C(C)C)C1c1ccccc1", "note": "(configuration not stated)", "values": [
      {"measurement": "T/C", "setting": "[4]", "value": "92 % of control"},
      {"measurement": "T/C", "setting": "[8]", "value": "92 % of control"}
    ]},
    {"smiles": "COc1cc(C2SCC(=O)N2c2nncs2)c([N+](=O)[O-])cc1OC", "note": "(configuration not stated)", "values": [
      {"measurement": "T/C", "setting": "[5]", "value": "91 % of control"},
      {"measurement": "T/C", "setting": "[6]", "value": "91 % of control"},
      {"measurement": "T/C", "setting": "[7]", "value": "89 % of control"}
    ]},
    {"smiles": "COc1ccc(-c2cn(-c3ccc(OC)cc3)c3ncnc(N)c23)cc1", "values": [
      {"measurement": "T/C", "setting": "[9]", "value": "102 % of control"},
      {"measurement": "T/C", "setting": "[10]", "value": "100 % of control"},
      {"measurement": "T/C", "setting": "[11]", "value": "96 % of control"}
    ]},
    {"smiles": "C=CCn1nc([O-])[n+]2ccccc12", "values": [
      {"measurement": "T/C", "setting": "dose: 100.0 mg/kg/injection, schedule: Q01DX001 (ip), vehicle: saline", "value": "95 % of control"},
      {"measurement": "T/C", "setting": "dose: 200.0 mg/kg/injection, schedule: Q01DX001 (ip), vehicle: saline", "value": "95 % of control"},
      {"measurement": "T/C", "setting": "dose: 400.0 mg/kg/injection, schedule: Q01DX001 (ip), vehicle: saline", "value": "104 % of control"}
    ]},
    {"smiles": "Cc1cc2cc3c(c(C(=O)O)c2o1)C(=O)c1ccc2ccccc2c1C3", "values": [
      {"measurement": "T/C", "setting": "[9]", "value": "97 % of control"},
      {"measurement": "T/C", "setting": "[10]", "value": "101 % of control"},
      {"measurement": "T/C", "setting": "[11]", "value": "94 % of control"}
    ]},
    {"smiles": "CC(NC(=O)CN(C)C(=O)OCc1ccccc1)C(=O)O", "note": "(configuration not stated)", "values": [
      {"measurement": "T/C", "setting": "[1]", "value": "102 % of control"},
      {"measurement": "T/C", "setting": "[2]", "value": "96 % of control"},
      {"measurement": "T/C", "setting": "[3]", "value": "100 % of control"}
    ]},
    {"smiles": "CN1CC[C@@H](c2ccccc2)[C@@H](O)C1", "values": [
      {"measurement": "T/C", "setting": "[4]", "value": "97 % of control"},
      {"measurement": "T/C", "setting": "[8]", "value": "100 % of control"}
    ]}
  ]
}
